The values that follow come from ChEMBL document CHEMBL3526122, “Identification of UDP-glucuronosyltransferases responsible for the glucuronidation of darexaban, an oral factor Xa inhibitor, in human liver and intestine” (Drug Metab Dispos, 2012).

For data set [1], the target named is T1, UDP-glucuronosyltransferase 1A8 (Homo sapiens, UniProt Q9HAW9).
T1 sequence (Q9HAW9 whole entry): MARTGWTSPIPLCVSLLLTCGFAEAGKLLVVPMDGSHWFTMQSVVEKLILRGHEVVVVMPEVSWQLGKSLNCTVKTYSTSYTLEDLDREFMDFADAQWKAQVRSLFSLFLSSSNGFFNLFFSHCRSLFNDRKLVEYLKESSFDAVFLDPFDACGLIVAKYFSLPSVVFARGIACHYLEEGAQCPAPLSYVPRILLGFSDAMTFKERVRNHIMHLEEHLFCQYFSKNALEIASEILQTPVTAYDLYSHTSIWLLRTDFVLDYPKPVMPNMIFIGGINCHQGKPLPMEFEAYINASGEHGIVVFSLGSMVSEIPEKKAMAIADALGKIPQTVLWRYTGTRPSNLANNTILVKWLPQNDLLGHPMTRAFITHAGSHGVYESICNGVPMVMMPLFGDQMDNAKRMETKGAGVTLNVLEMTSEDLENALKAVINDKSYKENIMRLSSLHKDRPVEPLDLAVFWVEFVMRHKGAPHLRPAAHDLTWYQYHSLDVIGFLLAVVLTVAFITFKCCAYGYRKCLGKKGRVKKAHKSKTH
As to the kind of experiment: Activity of human recombinant UGT1A8 expressed in baculovirus-infected insect cells assessed as intrinsic clearance for enzyme-mediated glucuronide formation per mg of protein at 1 to 250 uM after 10 mins in presence of UDPGA. Type of data set: ADME.

Data set [2] has as its target T2, UDP-glucuronosyltransferase 1A9 (Homo sapiens, UniProt O60656).
T2 sequence (O60656 whole entry): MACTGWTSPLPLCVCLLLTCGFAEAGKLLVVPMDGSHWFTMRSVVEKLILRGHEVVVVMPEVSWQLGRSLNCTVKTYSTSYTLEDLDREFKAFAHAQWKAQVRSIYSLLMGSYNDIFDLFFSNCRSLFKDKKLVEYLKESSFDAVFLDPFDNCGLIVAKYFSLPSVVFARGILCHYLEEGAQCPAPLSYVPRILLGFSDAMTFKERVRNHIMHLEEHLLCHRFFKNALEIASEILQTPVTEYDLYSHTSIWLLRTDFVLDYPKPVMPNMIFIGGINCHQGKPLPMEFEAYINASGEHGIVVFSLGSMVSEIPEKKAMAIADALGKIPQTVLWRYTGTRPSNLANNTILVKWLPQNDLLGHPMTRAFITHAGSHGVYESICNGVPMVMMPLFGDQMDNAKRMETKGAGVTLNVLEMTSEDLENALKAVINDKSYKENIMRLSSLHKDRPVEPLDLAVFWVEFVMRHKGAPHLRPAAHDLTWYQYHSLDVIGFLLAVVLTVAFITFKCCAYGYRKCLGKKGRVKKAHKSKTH
As to the kind of experiment: Activity of recombinant human UGT1A9 expressed in baculovirus-infected insect cells assessed as enzyme-mediated glucuronidation per mg of protein after 5 mins in presence of UDPGA. Type of data set: ADME.

A short description of data set [3]: Drug metabolism in human intestinal microsomes assessed as glucuronidation at 30 uM after 5 mins by LC-MS/MS analysis relative to vehicle-treated control in presence of beta-estradiol and UDPGA. The data set is classed as ADME, Intestine, Microsome. To be noted: with beta-estradiol, read-out: Drug metabolism.
Data set [4] deals with T3, UDP-glucuronosyltransferase 1A6 (Homo sapiens, UniProt P19224).
T3 sequence (P19224 whole entry): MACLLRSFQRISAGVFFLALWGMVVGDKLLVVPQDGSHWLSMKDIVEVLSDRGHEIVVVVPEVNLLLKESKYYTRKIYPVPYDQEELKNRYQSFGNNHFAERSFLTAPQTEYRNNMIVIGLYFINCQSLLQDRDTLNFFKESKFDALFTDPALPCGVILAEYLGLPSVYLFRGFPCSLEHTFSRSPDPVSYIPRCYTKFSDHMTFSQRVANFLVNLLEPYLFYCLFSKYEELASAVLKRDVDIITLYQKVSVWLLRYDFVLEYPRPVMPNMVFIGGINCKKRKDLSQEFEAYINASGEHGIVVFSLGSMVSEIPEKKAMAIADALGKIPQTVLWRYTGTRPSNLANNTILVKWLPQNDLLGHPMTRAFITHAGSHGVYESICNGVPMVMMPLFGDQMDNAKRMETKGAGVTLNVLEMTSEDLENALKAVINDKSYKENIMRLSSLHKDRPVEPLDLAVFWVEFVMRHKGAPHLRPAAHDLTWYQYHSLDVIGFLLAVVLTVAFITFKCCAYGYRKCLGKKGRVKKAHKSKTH
As to the kind of experiment: Activity of human recombinant UGT1A6 expressed in baculovirus-infected insect cells assessed as enzyme-mediated glucuronidation per mg of protein after 10 mins in presence of UDPGA. Type of data set: ADME.

For another data set, the system named is Liver microsome. Briefly: Unbound intrinsic clearance in human liver microsomes assessed per mg of protein after 10 mins in presence of UDPGA and 0.1% fatty acid free BSA. Type of data set: ADME.
The target of data set [5] is T4, UDP-glucuronosyltransferase 1A7 (Homo sapiens, UniProt Q9HAW7).
T4 sequence (Q9HAW7 whole entry): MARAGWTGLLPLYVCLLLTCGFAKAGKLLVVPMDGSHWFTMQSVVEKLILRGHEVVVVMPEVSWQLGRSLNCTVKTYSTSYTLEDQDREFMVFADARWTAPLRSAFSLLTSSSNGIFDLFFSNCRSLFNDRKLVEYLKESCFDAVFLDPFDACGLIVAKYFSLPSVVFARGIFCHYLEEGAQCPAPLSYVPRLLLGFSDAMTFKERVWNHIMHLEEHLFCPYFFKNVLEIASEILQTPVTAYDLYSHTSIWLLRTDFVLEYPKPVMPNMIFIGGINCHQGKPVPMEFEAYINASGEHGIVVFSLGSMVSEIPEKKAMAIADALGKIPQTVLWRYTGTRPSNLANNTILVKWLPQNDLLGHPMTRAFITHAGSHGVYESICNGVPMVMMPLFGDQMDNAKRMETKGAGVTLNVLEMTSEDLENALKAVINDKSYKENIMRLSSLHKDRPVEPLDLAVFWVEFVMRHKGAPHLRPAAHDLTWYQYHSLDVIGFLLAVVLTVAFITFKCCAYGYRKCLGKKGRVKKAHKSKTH
Briefly: Activity of human recombinant UGT1A7 expressed in baculovirus-infected insect cells assessed as enzyme-mediated glucuronidation per mg of protein after 10 mins in presence of UDPGA. Type of data set: ADME.

SMILES strings stand for the structures. Some results are limits rather than exact numbers.

As for `COc1ccc(C(=O)Nc2cccc(O)c2NC(=O)c2ccc(N3CCCN(C)CC3)cc2)cc1.O=C(O)CCC(=O)O`, the clearance in data set [1] came to 51.5 µL/min/mg. Moreover, the Drug metabolism in data set [2] was 2.43 nmol/min/mg; in data set [4], < 0.01 nmol/min/mg; in data set [5], 0.251 nmol/min/mg. Besides, the activity at 5 min, 30 µM in data set [3] was 22.6%. Besides, the CL free with Liver microsome was determined as 184 µL/min/mg.
